Assay results reported in US7326540B2, “Methods for identifying compounds that modulate stabilization of secretase-associated proteins” (priority 2003, dated 2008).
Where a SMILES comes first, the peptide text is derived from it. The star is where a group is joined. Cbz = O=C(OCc1ccccc1)*; CH2F = FC*

How the values were obtained:
[1] = tested on: CHO cells overexpressing APP751 and PS1 WT; assay: Induction of apoptosis (caspase 3 activation, TUNEL); assay type: cell-based, Chinese Hamster; conditions: STS 1 μM, after 6 hrs
γ-secretase = assay: Secreted Aβ1-total ELISA in CHO-CC99/PS1 cells; assay type: cell-based, Chinese Hamster; conditions: STS-treated CHO-CC99/PS1 cells, 6 hours
Procedure: Chinese Hamster Ovary (CHO) cells expressing APP751 and BACE (CAB), CHO cells expressing full-length APP and wild-type PS1 (CHO-APP751/PS1) or expressing C99 and wild-type PS1 (CHO-CC99/PS1), H4 human neuroglioma cells expressing APP751 (H4-APP751), mouse embryonic fibroblast (MEF), embryonic stem (ES) cells, and human epithelial A431 cells were grown as described previously (Marambaud, P. et al., Embo J 21, 1948-56 (2002); Cai, H. et al., Nat Neurosci 4, 233-4 (2001); Sato, N. et al., Nat Cell Biol 2, 863-70 (2000); Puglielli, L., Ellis, B. C., Saunders, A. J. & Kovacs, D. M., J Biol Chem 278, 19777-83 (2003); Wolfe, M. S. et al., Nature 398, 513-7 (1999)). For the induction of apoptosis, we used staurosporine or etoposide (Calbiochem (EMD Biosciences, San Diego, Calif.)). For Aβ measurements, cells were seeded at the density of 0.5×10^6 cells per well in 6 well plates. After 48 hours, cells were treated with either STS (1 μM) for 6 hours. […]
Secreted Aβ1-total was measured in the conditioned media of untreated cells or of cells treated with STS or STS plus zVAD using a sensitive ELISA (Wolfe, M. S. et al., Nature 398, 513-7 (1999). At least three different experiments were carried out and each experiment was performed at least in triplicate. […]

[2] = tested on: BACE, PS1, nicastrin, Pen-2 and Aph1a mRNA; assay: Northern blot of BACE and γ-secretase complex component mRNA in H4-APP751 cells; assay type: cell-based, human; conditions: after 6 hours of STS treatment
Procedure: FIG. 14 provides digitized images showing that transcription of BACE and γ-secretase complex components is decreased during apoptosis. Northern Blot analysis: H4-APP751 cells were treated with STS in serum free media. Total RNA was extracted using TRIZOL (Invitrogen). 20 μg of the resulting RNA were analyzed by Northern blot analysis performed as previously described (Koh, Y. H. et al., Faseb J 15, 1472-4 (2001)). Human cDNA of BACE, PS1 , nicastrin, Pen-2, Aph1a was labeled with [α-^32P]dCTP (PerkinElmer) using random hexanucleotide primers (Prime-a-gene labeling system; Promega). Ethidium staining of the gel (lower panel) confirmed equal RNA loading.
We next asked whether apoptosis increases protein levels of BACE, PS1, nicastrin, Pen-2 and Aph1a via increased synthesis. […] We next asked whether BACE, PS1, nicastrin, Pen-2 and Aph1a protein levels are increased during apoptosis due to decreased degradation. […] In contrast, TACE, full-length APP, and APP-CTFs were not stabilized during apoptosis (FIG. 15a). Given that the components of the β-amyloidogenic secretases are stabilized during apoptosis while many other proteins are degraded (e.g. TACE, APP), the apparent increase of protein levels at the latest time points of the CHX+STS time course was most likely due to a relative increase of stabilized protein when normalized for the equal amounts of total protein.

E-cadherin = E-cadherin proteolysis in A431 cells during STS-induced apoptosis (Western blot, C36 antibody); assay type: cell-based, human; conditions: zVAD-FMK 100 μM pre-incubated 30 min, then STS 6 hours
Procedure: FIG. 11 provides digitized images and graphs showing that apoptosis enhances γ-secretase activity and levels of γ-secretase complex proteins. FIG. 11a: Apoptosis was induced in CAB, CHO-CC99/PS1 and CHO-APP 751/PS1 by STS treatment for 6 hours with or without zVAD (100 μM). Secreted Aβ1−total was measured by ELISA. […] Each bar represents the mean and SD of quadruplicate determinations. FIG. 11b: Western blot analysis with the antibody, A8717, detected endogenous APP-FL and overexpressed C99 in CHO-CC99/PS1cells, while overexpressed APP-FL and C83 were detected in CHO-APP751/PS1 cells. FIG. 11c: A431 human epithelial cells were pre-incubated for 30 min in the absence (−) or presence (+) of zVAD-FMK (100 μM), L-685,458 (0.5 μM) or GM6001 (2.5 μM). Cells were then treated with STS for 6 hours to induce apoptosis, and cell extracts were probed with anti-E-cadherin C36 antibody. FIG. 11d: Protein levels of γ-secretase complex components were monitored by Western blotting employing the anti-nicastrin, Ab14, PNT2, H2D2 antibodies. Densitometry analysis was performed using NIH image software. Each bar represents the mean and SEM of at least three experiments. FIG. 11e: Nicastrin was transiently transfected in the A431 cells. Western blot analysis for E-cadherin and γ-secretase complex component was performed as in FIG. 11c and FIG. 11d β-tubulin was used as loading control.
To confirm that apoptosis/caspase activation increases γ-secretase activity, we next examined the proteolysis of E-cadherin, another γ-secretase substrate (Marambaud, P. et al., Embo J21, 1948-56 (2002)) during apoptosis. We confirmed that caspase activation enhanced the production of E-Cad/CTF1 (Steinhusen, U. et al., J Biol Chem 276, 4972-80 (2001)), E-Cad/CTF2 (Marambaud, P. et al., 2002) (˜2- and 3-fold increase by densitometry analysis, respectively), and generated E-Cad/CTF3 (Marambaud, P. et al., 2002) (FIG. 11c). […]

Compound | Apoptosis (caspase 3 activated, TUNEL positive) [1] | Aβ1-total increase compared to untreated cells (γ-secretase) [fold] | BACE, PS1, nicastrin, Pen-2 and Aph1a mRNA levels [2] | generation of E-Cad/CTF3 (E-cadherin)
CN[C@@H]1C[C@H]2O[C@@](C)([C@@H]1OC)n1c3ccccc3c3c4c(c5c6ccccc6n2c5c31)C(=O)NC4 [STS, staurosporine] | induced apoptosis | ~1.5 | virtually undetectable | 
COC(=O)C[C@H](NC(=O)[C@H](C)NC(=O)[C@@H](NC(=O)OCc1ccccc1)C(C)C)C(=O)CF [zVAD] (Cbz-Val-Ala-Asp(OMe)-CH2F) |  |  |  | inhibited
